These results are taken from patent publication US20170196859A1, “PHARMACEUTICAL COMPOSITION COMPRISING PYRAZINE CARBOXAMIDE COMPOUND AS ACTIVE INGREDIENT” (Astellas Pharma Inc., priority 2014, published 2017).

Test [1] deals with human diffuse large B-cell lymphoma cell line OCI-Ly10 cells. As to the kind of experiment: Proliferation inhibition, OCI-Ly10 cells (CellTiter-Glo). In kind it is cell-based. The conditions noted are these: OCI-Ly10, 72 h, 3 days culture, 100% inhibition = value on day of cell seeding. How it is done: OCI-Ly10 is a cell line originated from human diffuse large B-cell lymphoma, which is a B-cell malignant neoplasm, and the BTK dependency has been confirmed (Nature. 2010; 463:88-92). The human diffuse large B-cell lymphoma cell line OCI-Ly 10 cells (University Health Network) cultured in an Iscove's Modified Dulbecco's Medium (Sigma) containing a 20% bovine serum were seeded into 96 well plates. On the same day, DMSO solutions of the test compound B at a final concentrations from 0.1 nM to 1 μM or only DMSO (DMSO group) were added thereto to culture the cells at 37° C. in 5% CO2 for 3 days. Thereafter, the cell number was measured using a cell counting reagent (CellTiter-Glo (registered trademark) Luminescent Cell Viability Assay (Promega)). The cell proliferation inhibition rate was calculated by the measured value in the DMSO group set as 0% inhibition and the measured value in the DMSO group on day of cell seeding set as 100% inhibition.
A general note: ATP-based viability assays read luminescence as a measure of living cells.

In test [2] the test system is OCI-Ly10 subcutaneous xenograft. Description: Anti-tumor evaluation in OCI-Ly10 subcutaneous xenograft mouse model. The note with it: for tumor volume after 14 days: control 188 to 520 mm^3. In kind it is in vivo. How it is done:
The human diffuse large B-cell lymphoma cell line OCI-Ly10 cells were subcutaneously implanted to a dorsal part of an immunodeficient mouse (NOD.CB 17-Prkdc scid/J, male, 4-week-old (Charles River Laboratories Japan, Inc.)) to prepare an OCI-Ly10 subcutaneous xenograft mouse model. To mice which were divided based on the tumor volumes, 0.5% methylcellulose (control group: 10 mL/kg/day, QD, po (n=4)) or the test compound B (test compound B-administered group: 30 or 100 mg/kg/day in 0.5% methylcellulose suspension, QD, po (n=4)) were administered. The change in the tumor volume was evaluated over time.

Test [3] has as its system human anaplastic large cell lymphoma cell line KARPAS-299 cells. As to the kind of experiment: Proliferation inhibition, KARPAS-299 cells (CellTiter-Glo). The note with it: KARPAS-299, 72 h, 3 days culture. It counts as cell-based. As for the experimental part:
KARPAS-299 is a cell line originated from human anaplastic large cell lymphoma and the activation of JAK 3 has been confirmed (Oncogene. 2002; 21:1038-1047). The human anaplastic large cell lymphoma cell line KARPAS-299 cells (DSMZ, ACC31) cultured in RPMI1640 medium (Sigma) containing a 10% bovine serum were seeded into 96 well plates. On the same day, DMSO solution of the test compound B at a final concentrations from 1 nM to 10 μM or only DMSO (DMSO group) were added thereto to culture the cells at 37° C. in 5% CO2 for 3 days. Thereafter, the cell number was measured using a cell counting reagent (CellTiter-Glo (registered trademark) Luminescent Cell Viability Assay (Promega)). The cell proliferation inhibition rate was calculated as the measured value in the DMSO group set as 0% inhibition and the measured value in the well only with the medium on which the cells have not been seeded set as 100% inhibition.

Test [4] relates to human acute megakaryocytic leukemia cell line CMK cells. Description: Proliferation inhibition, CMK cells (CellTiter-Glo). In kind it is cell-based. The conditions noted are these: 96 h, 4 days culture. As for the experimental part:
CMK is a cell line originated from human acute megakaryocytic leukemia and the activation of JAK 3 has been confirmed (Cancer Cell. 2006; 10:65-75). The human acute megakaryocytic leukemia cell line CMK cells (DSMZ, ACC392) cultured in RPMI1640 medium (Sigma) containing 20% bovine serum and 2 mM of glutamine were inoculated into 96 well plates. On the same day, DMSO solutions of the test compound B at final concentrations from 1 nM to 10 μM or only DMSO (DMSO group) were added thereto to culture the cells at 37° C. in 5% CO2 for 4 days. Thereafter, the cell number was measured using a cell counting reagent (CellTiter-Glo (registered trademark) Luminescent Cell Viability Assay (Promega)). The cell proliferation inhibition rate was calculated as the measured value in the DMSO group set as 0% inhibition and the measured value in the well only with the medium on which the cells have not been seeded set as 100% inhibition.

Usually GI50 stands for the concentration giving 50% growth inhibition. Low readings indicate greater sensitivity of the cells, high ones lower sensitivity of the cells. What is called IC50 is the midpoint of a concentration-inhibition curve. Low readings indicate inhibition by little substance, high ones a need for much substance.

The compound `C=CC(=O)N1CC[C@@H](Oc2nc(Nc3ccc(N4CCC(N5CCN(C)CC5)CC4)cc3)c(C(N)=O)nc2CC)C1` [test compound B, 5-{[(3R)-1-acryloylpyrrolidin-3-yl]oxy}-6-ethyl-3-({4-[4-(4-methylpiperazin-1-yl)piperidin-1-yl]phenyl}amino)pyrazine-2-carboxamide monomethanesulfonate] showed a GI50 in test [1] of 1 nM. In addition, the “tumor volume after 14 days” value is reported as 50 mm^3 in test [2] (30 mg/kg/day QD po, 190 mm^3 at start of administration) and 22 mm^3 in test [2] (100 mg/kg/day QD po, 184 mm^3 at start of administration). Also, the “antitumor activity in OCI-Ly10 xenograft mouse model” value in test [2] (summary statement, 30 and 100 mg/kg/day) is reported as “remarkable antitumor activity with regression in a dose-dependent manner”. In addition, the IC50 stood at 250 nM in test [3] and 110 nM in test [4].
